Read-outs that look alike come from different tables or passages of the source.
What was measured:
LSK Flk2^− cells = test: Ex vivo culture and expansion of sorted LSK Flk2- cells in media with PTEN and/or GSK-3β inhibitors; assay type: cell-based, wild-type (C57Bl/6) mice; conditions: 1 μM CHIR99021, 200 nM BpV(pic); for expansion of LSK cells compared to control: 100 LSK Flk2- cells seeded, 17 and 23 days culture; for Fold expansion of LSK Flk2- cells after 28 days culture: compared to media without inhibitor
Method: LSK or LSK Flk2^− cells were sorted into 96-well U-bottom tissue culture plates at 100 cells/well with 200 μl media/well. Cells were incubated at 37° C., 5% O2, 5% CO2 (balance N2) for the indicated number of days. One-half total volume of media (see Table 1, below for the base media) was carefully pipetted from the top and replaced with fresh media every other day.
One hundred LSK Flk2^− cells were sorted from wild-type (C57Bl/6) mice and cultured in (1) media, (2) media+1 μM CHIR99021 (a GSK-3(3β inhibitor, a gift from Dr. Sheng Ding), (3) media+200 nM Dipotassium Bis-peroxo(picolinato)oxovanadate (BpV(pic), a PTEN inhibitor, available from Calbiochem, Cat. No. 203705), (4) media+1 μM CHIR99021+200 nM BpV(pic), (5) media+200 nM Shikonin (also a PTEN inhibitor, available from Calbiochem, Cat. No. 565850), and (6) media+200 nM Shikonin+1 μM CHIR99021. (FIGS. 3B-C). Cells were cultured as described above. Cells were examined at 17 days of culture (FIG. 3B, original magnification 100×) and 23 days (FIG. 3C, original magnification 40×).
LSK Flk2^− cells at 28 days culture in the indicated media conditions were examined (FIG. 3D, original magnification 200×).
Fold expansion of LSK Flk2^− cells after 28 days culture in (1) media, (2) media+BpV(pic), (3) media+CHIR99021, and (4) media+CHIR99021+BpV(pic) were analyzed.
One hundred LSK Flk2^− cells are sorted from wild-type (C57Bl/6) mice and are cultured in (1) media, (2) media+an GSK-3β antibody, (3) media+an anti-PTEN antibody, and (4) media+anti-GSK-3β and anti-PTEN antibodies. Cells are cultured as described above. Cells are examined at 9 days, 17 days and 23 days of culture.
One hundred LSK Flk2^− cells are sorted from wild-type (C57Bl/6) mice and are cultured in (1) media, (2) media+GSK-3β siRNA, (3) media+PTEN siRNA, and (4) media+GSK-3β siRNA and PTEN siRNA. Cells are cultured as described above. Cells are examined at 9 days, 17 days and 23 days of culture.

[1] = system: lethally irradiated (10Gy) CD45.1^+ recipient mice; test: Transplantation of cultured LSK Flk2- cells into lethally irradiated recipients; donor repopulation in peripheral blood; assay type: in vivo; conditions: 28-day cultures; 1000 re-sorted LSK Flk2- cells (CD45.2+) + 2×10^5 competitor cells per mouse; peripheral blood at 4 weeks post-transplant
Text: Cells were harvested from the wells prior to transplantation by pipetting up and down several times before transferring to a fresh tube. Residual was then collected by adding more media and repeating. Cells were washed in DMEM (Invitrogen, Cat. No. 31053) without phenol red and added to the appropriate number of whole bone marrow rescue cells from a congenic donor (for 200,000 rescue cells+1,000 re-sorted LSK Flk2^− cells (FIG. 3F-H) or the non-adherent product of 10 days culture of 100 LSK Flk2^− cultured cells (FIG. 3I-K) per mouse as indicated). Cells were injected into lethally irradiated (10 Grays, single dose) Ptprc (CD45.1^+) recipient mice through the tail vein using an insulin syringe.
Repopulation was measured at 4 weeks post-transplant by collection of peripheral blood, red blood cell lysis, and staining of CD45.1 (recipient) compared to CD45.2 (donor) engraftment using antibodies purchased from eBiosciences (FITC conjugated CD45.2 (Cat. No. 11-0454-85) and PE-Cy5 conjugated CD45.1 (Cat. No. 15-0453-82)). Mice transplanted with rescue/competitor cells only were used as a control to determine the limits of repopulation detection. Multi-lineage reconstitution was determined by CD3, B220 (for lymphoid) and Gr1, Mac-1 (for myeloid), as described above.
Cells cultured for 28 days in (1) media, (2) media+BpV(pic), (3) media+CHIR99021 and (4) media+CHIR99021 (1 μM)+BpV(pic) (200 nM) were re-sorted for LSK Flk2^− cells. One thousand LSK Flk2^− cells (CD45.2^+) from each media condition were transplanted into lethally irradiated (10Gy) CD45.1^+ recipient mice along with 2×10^5 congenic whole bone marrow competitor cells. At 4 weeks post-transplant, peripheral blood was analyzed for donor (FIG. 3G) and multi-lineage (FIG. 3H) engraftment. […] The horizontal-dashed line represents the average ‘engraftment’ of mice transplanted with competitor cells only and, thus, the limit of detectability for true engraftment.

[2] = system: lethally irradiated (10Gy) CD45.1^+ recipient mice; test: Observation of transplant recipients for leukogenesis and health; conditions: recipients of LSK Flk2- cells cultured with inhibitor(s); up to 16 weeks post-transplantation
[3] = system: lethally irradiated (10Gy) CD45.1^+ recipient mice; conditions: mouse, in vivo

Row | Compound | expansion of LSK cells compared to control (LSK Flk2^− cells) | Fold expansion of LSK Flk2- cells after 28 days culture (LSK Flk2^− cells) | mice showing >1% engraftment [1] | mice showing any sign of leukogenesis [2] | mice showing any sign of leukogenesis [3]
1 | Cc1c[nH]c(-c2cnc(NCCNc3ccc(C#N)cn3)nc2-c2ccc(Cl)cc2Cl)n1 [CHIR99021] | greater expansion | significant expansion | 4/8 | no mice | 
2 | Dipotassium Bis-peroxo(picolinato)oxovanadate [BpV(pic)] | greater expansion | significant expansion | 0/10 |  | no mice
